Data on two compounds can be found in patent US20260306421A1, “SYSTEMS AND METHODS FOR TRANSDERMAN PATCH DELIVERY” (VITAMAX PATCH WHOLESALER LLC, priority 2022, published 2026).

Marks after values point to notes of the source that are not given here. Where only a bound is given, the exact number is not on record here.

Holding throughout (type): physicochemical
A short description of data set [1]: Solubility of cholecalciferol and cholecalciferol phosphate (disodium, acid). Particulars: visual solubility. On the procedure: Aliquots of cholecalciferol, cholecalciferol phosphate disodium, and cholecalciferol phosphate acid were added to a range of solvents including propylene glycol (PG), distilled water, methanol, ethyl acetate, ethanol, n-hexane, and the visual solubility was determined. A precise assessment of the saturation solubility was for some of the solvent systems was made using high-performance liquid chromatography (HPLC). In the HPLC solubility studies, an excess of each solute was added into 2 mL of each test solvent. The solutions were left stirring overnight at room temperature, (RT), 22° C. The saturation of the solutions was confirmed by the visual appearance of crystals and the drug suspensions were filtered through 0.2 μm cellulose acetate syringe filters, diluted with excess of mobile phase, and the solute concentration of each sample was assessed using HPLC.

Data set [2] in a line: Chemical stability of cholecalciferol phosphate acid in skin permeation solvents. To be noted: 24 h, 37° C. On the procedure:
To assess the chemical stability of the cholecalciferol phosphate acid in the solutions employed in the skin permeation experiments a 1 mg/mL solution of cholecalciferol phosphate acid in propylene glycol (PG) was prepared and incubated at 37° C. for 24 hours. In addition 100 μg/mL cholecalciferol phosphate acid in 90:10 methanol:water and in 80:20 PG:water were also incubated at 37° C. for 24 hours. The concentration pre and post incubation was compared to determine the chemical stability during the permeation studies.

Data set [3] can be described thus: Cholecalciferol phosphate adhesive suitability / compatibility screen. On the procedure: Pre-formulation studies were performed to determine the compatibility of cholecalciferol phosphate (disodium and acid forms) with a range of adhesives (Table 38) that could be used to manufacture of the patch. The compatibility of the drugs with the patch excipients was assessed through checking the clarity of the mixture.
The compatibility of the adhesive with solvents and drug was established. The maximum drug loading in the adhesive following solvent evaporation was determined by mixing the drug, adhesive and co-solvents until a clear solution is obtained at different drug:adhesive ratios by placing a drop of solution onto patch backing sheet, leaving the slide to dry for 3-4 hours and examining the formed fil on the surface of the backings for evidence of drug crystals were assessed using KKmoon digital magnifier with LED light (China). Following patch optimization, the drug-adhesive solution was cast as 10×10 cm squares using of backing (3M™ Scotchpak™ Polyester Backing Film Laminate 9730). A sufficient volume of the adhesive was applied to achieve a target coating of 8 mg/cm^2. Following complete drying of the solvents, the adhesive layer was covered by M3 Release liner (SCOTCHPAK 9755), compressed, and then cut using 34 mm circular manual die cutter (SCP Super Cutting Press).

Data set [4] can be described thus: Iron complex adhesive compatibility and loading screen.
Data set [5] in a line: Solubility of iron chloride hexahydrate and iron complexes (visual / assayed). Particulars: visual (*). The procedure, abridged:
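Visual screen across solvents, then quantitation with excess complex by one of three incubations: 48 h shaking at 37 °C, 2 h sonication at 40 °C, or overnight at 50 °C. Iron in the supernatant after centrifugation was measured by Ferrozine assay.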

Data set [6] can be described thus: Iron complex reservoir solvent solubility screening. Particulars: Span 80, SDS, Tween 80 and Kolliphore EL.

With `C=C1CCC(OP(=O)(O)O)CC1=CC=C1CCCC2(C)C1CCC2C(C)CCCC(C)C` (stereo not shown) [Cholecalciferol phosphate acid, cholecalciferol phosphate acid], the Solubility in data set [1] (solvent Ethanol) is ~4* mg/mL; in data set [1] (solvent Ethyl acetate), <0.1* mg/mL; in data set [1] (solvent Hexane), ~40* mg/mL; in data set [1] (solvent Methanol (0.1% TFA)) it was <0.1* mg/mL; in data set [1] (solvent PG), ~10* mg/mL; in data set [3] (DURO-TAK 87-2052 0.268 mL, 10 mg drug, 0.5 mL hexane, 0.4 mL ethyl acetate), “Clear”. The Solubility entry is recorded as “Clear” in data set [3] (DURO-TAK 87-9301 100 mg, 5 mg drug, 5 mg dodecyl amine, 0.5 mL methanol, 0.25 mL ethyl acetate); “Clear” in data set [3] (Duro-TAK 87-2516 100 mg, 10 mg drug, 10 mg dodecyl amine, 0.5 mL methanol, 0.5 mL ethyl acetate); “Clear” in data set [3] (Duro-TAK 87-2516 100 mg, 10 mg drug, 10 mg dodecyl amine, 1 mL methanol, 1.25 mL ethyl acetate); “Clear” in data set [3] (Duro-TAK 87-2516 100 mg, 10 mg drug, 10 mg dodecyl amine, 1.5 mL methanol, 1 mL ethyl acetate); “Clear” in data set [3] (Oppanol B12 1.2 g, 65 mg drug, 15.9 mL hexane); “Clear” in data set [3] (Oppanol B12 1.2 g, 65 mg drug, 15.9 mL hexane, 65 mg dodecyl amine). Also, in data set [3] (Oppanol B12 2.3 g, 130 mg drug, 32 mL hexane), the Solubility result is on record as “Clear”. In data set [2], the “stability in donor, extraction and receiver solvent” value is recorded as “appropriate stability”. Besides, the “compatibility with adhesives and organic solvents” value in data set [3] (Oppanol B12, DURO-TAK 87-2516, 87-9301 and 87-2052) was “showed compatibility”.
`Cc1occc(=O)c1[O-].Cc1occc(=O)c1[O-].Cc1occc(=O)c1[O-].[Fe+3]` [Iron maltol made at pH 7.4, iron maltol]: the “Solubility in DURO-TAK 9301 patch” value in data set [4] (drug loading 4%, 2 mg PG) is on record as “Clear”; in data set [4] (drug loading 4%, no permeation enhancer), “Clear”; in data set [4] (drug loading 6%, no permeation enhancer), “Precipitated”; in data set [4] (drug loading 7%, 8 mg Maltol), “Precipitated”; in data set [4] (drug loading 7.5%, 4 mg PG) it was “Precipitated”; in data set [4] (drug loading 8%, no permeation enhancer), “Precipitated”. For the same compound, the “Solubility in DURO-TAK 9301 patch” value in data set [4] (drug loading 10%, 5.5 mg PG) was “Precipitated”; in data set [4] (drug loading 10%, 5.5 mg Transcutol), “Precipitated”; in data set [4] (drug loading 10%, no permeation enhancer) it was “Precipitated”. The results for the “Solubility of complex (visual)” value in data set [5] (PEG400), in data set [5] (PG) and in data set [5] (Transcutul) were less than 20 mg/mg/mL, not below 20 mg/mg/mL and less than 20 mg/mg/mL, respectively. The visual solubility in data set [6] is given as not above 32 mg/mL.
